Legend:
[1] = target: Glutamate receptor ionotropic, NMDA 1 (Rattus norvegicus, UniProt P35439)
[2] = target: T1, 5-hydroxytryptamine receptor 1A (Homo sapiens, UniProt P08908); format: functional, cell-based
T1 sequence (P08908 whole entry): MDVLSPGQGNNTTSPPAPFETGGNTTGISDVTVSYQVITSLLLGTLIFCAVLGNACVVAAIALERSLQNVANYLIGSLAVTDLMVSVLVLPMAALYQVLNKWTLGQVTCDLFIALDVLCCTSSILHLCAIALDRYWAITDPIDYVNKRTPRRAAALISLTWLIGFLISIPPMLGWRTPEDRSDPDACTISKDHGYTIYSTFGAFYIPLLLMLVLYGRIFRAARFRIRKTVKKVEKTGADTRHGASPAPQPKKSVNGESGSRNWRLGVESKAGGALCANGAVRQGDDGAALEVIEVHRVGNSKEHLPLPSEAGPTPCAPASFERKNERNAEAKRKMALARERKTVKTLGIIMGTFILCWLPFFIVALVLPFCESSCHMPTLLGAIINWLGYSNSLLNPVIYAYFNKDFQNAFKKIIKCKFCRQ

[3] = target: T2, Type-1 angiotensin II receptor (Homo sapiens, UniProt P30556)
T2 sequence (P30556 whole entry): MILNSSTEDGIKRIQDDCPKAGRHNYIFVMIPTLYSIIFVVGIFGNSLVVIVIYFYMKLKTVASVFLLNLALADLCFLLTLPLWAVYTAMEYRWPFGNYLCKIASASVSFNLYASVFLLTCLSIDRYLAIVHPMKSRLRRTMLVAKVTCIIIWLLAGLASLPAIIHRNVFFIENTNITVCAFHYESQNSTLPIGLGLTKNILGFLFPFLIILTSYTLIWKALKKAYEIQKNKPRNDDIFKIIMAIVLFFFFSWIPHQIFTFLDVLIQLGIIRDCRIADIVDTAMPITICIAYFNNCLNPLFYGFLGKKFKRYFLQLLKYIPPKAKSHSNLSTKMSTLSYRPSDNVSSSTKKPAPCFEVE

[4] = target: Neuronal acetylcholine receptor subunit alpha-4 (Homo sapiens, UniProt P43681)
Cannabinoid receptor 1 = Cannabinoid receptor 1 (Homo sapiens, UniProt P21554); format: functional, cell-based
Histamine H2 receptor = Histamine H2 receptor (Homo sapiens, UniProt P25021); format: functional, cell-based
[5] = target: 5-hydroxytryptamine receptor 2B (Homo sapiens, UniProt P41595); format: functional, cell-based
[6] = target: T3, 5-hydroxytryptamine receptor 3A (Homo sapiens, UniProt P46098); format: functional
T3 sequence (P46098 whole entry): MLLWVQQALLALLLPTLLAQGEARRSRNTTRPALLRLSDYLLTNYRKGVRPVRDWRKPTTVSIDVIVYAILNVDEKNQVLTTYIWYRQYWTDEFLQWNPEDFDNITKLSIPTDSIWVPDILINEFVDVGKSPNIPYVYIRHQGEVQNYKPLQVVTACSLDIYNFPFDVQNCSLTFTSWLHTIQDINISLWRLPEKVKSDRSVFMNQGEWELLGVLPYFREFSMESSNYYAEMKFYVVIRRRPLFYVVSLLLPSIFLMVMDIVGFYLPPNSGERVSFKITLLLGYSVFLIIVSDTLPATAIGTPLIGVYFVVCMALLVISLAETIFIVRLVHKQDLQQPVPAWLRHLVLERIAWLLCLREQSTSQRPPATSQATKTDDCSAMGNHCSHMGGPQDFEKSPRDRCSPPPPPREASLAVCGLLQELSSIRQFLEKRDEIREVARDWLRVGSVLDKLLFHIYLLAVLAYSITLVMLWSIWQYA
Note: assay procedure not described here.

Cannabinoid receptor 1, sequence (P21554 whole entry): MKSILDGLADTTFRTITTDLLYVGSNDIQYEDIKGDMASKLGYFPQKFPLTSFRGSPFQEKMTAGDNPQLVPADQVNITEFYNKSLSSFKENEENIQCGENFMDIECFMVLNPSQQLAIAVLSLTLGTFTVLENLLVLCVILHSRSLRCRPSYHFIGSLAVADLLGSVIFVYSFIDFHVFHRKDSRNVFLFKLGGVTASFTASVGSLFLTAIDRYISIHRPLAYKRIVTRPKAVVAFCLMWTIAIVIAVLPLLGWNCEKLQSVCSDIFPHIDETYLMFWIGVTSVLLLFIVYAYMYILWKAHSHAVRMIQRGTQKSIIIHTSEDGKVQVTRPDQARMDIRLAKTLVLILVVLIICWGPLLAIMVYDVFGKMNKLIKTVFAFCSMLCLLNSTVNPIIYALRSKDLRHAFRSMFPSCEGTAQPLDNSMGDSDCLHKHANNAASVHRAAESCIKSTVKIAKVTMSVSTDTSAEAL
Neuronal acetylcholine receptor subunit alpha-4, sequence (P43681 whole entry): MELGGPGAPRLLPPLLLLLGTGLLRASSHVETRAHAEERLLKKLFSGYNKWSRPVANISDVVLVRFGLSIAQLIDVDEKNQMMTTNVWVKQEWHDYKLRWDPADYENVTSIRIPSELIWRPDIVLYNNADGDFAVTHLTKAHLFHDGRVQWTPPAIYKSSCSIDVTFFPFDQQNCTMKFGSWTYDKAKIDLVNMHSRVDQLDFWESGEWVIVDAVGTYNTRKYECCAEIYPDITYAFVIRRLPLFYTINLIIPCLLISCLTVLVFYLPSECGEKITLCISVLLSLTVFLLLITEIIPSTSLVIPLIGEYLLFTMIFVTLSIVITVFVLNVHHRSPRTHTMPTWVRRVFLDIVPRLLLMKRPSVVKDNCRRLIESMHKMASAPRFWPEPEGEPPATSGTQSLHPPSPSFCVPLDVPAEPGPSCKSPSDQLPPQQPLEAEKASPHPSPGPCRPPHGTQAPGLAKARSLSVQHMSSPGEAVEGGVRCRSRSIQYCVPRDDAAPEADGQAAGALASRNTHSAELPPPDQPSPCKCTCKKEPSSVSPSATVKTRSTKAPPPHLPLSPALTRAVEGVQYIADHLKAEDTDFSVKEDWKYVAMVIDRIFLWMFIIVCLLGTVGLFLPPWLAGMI
5-hydroxytryptamine receptor 2B, sequence (P41595 whole entry): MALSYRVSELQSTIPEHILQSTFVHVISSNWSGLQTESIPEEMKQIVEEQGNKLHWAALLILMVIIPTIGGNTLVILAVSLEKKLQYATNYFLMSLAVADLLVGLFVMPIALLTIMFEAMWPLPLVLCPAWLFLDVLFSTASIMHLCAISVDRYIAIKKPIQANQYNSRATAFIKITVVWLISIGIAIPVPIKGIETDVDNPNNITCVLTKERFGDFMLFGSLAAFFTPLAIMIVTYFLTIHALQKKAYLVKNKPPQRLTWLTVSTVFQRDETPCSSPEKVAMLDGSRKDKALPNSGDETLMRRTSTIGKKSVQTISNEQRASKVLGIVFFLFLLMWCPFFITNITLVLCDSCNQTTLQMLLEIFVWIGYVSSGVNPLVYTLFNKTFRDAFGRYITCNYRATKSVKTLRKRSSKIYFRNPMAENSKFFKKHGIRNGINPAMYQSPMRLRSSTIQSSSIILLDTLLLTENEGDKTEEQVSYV
Histamine H2 receptor, sequence (P25021 whole entry): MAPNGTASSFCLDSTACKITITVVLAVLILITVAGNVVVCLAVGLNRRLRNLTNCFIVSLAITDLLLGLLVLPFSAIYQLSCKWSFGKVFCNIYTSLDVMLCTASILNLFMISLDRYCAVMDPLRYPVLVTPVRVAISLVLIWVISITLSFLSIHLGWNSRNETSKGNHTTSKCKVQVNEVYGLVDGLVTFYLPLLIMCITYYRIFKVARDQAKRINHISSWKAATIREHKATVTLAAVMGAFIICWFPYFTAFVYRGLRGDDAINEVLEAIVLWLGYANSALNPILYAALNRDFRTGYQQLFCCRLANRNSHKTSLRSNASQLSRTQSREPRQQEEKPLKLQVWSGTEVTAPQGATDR

Structure (SMILES)	AC50 [1]	AC50 [2]	AC50 [3]	AC50 [4]	AC50 (Cannabinoid receptor 1)	AC50 (Histamine H2 receptor)	AC50 [5]	AC50 [6]
C[N+](C)(C)CCOP(=O)([O-])OC[C@H](O)CO	> 30 µM	> 30 µM	> 30 µM	> 30 µM	> 30 µM	> 30 µM	> 30 µM	> 30 µM
CN(C)C/C=C/C(=O)Nc1cc2c(Nc3ccc(F)c(Cl)c3)ncnc2cc1O[C@H]1CCOC1 [AFATINIB]	> 30 µM	> 30 µM	> 30 µM	> 30 µM	> 30 µM	> 30 µM	> 30 µM	> 30 µM
CCC1(c2ccc(N)cc2)CCC(=O)NC1=O (configuration not stated) [AMINOGLUTETHIMIDE]	> 30 µM	–	> 30 µM	> 30 µM	> 30 µM	> 30 µM	–	> 30 µM
CC1=C(C(=O)OC(C)C)C(c2cccc([N+](=O)[O-])c2)C(C(=O)OC2CN(C(c3ccccc3)c3ccccc3)C2)=C(N)N1 (configuration not stated) [AZELNIDIPINE]	> 30 µM	–	12 µM	> 30 µM	> 30 µM	> 30 µM	> 30 µM	> 30 µM
CC(Cc1cccc(C(F)(F)F)c1)NCCOC(=O)c1ccccc1 (configuration not stated) [BENFLUOREX]	> 30 µM	–	> 30 µM	> 30 µM	–	> 30 µM	0.495 µM	–
CN[C@]1(c2ccccc2Cl)CCCCC1=O [ESKETAMINE]	0.79 µM	–	> 30 µM	> 30 µM	–	> 30 µM	> 30 µM	> 30 µM
CCOC(=O)C1=C(C)NC(C)=C(C(=O)OCC)C1c1ccccc1/C=C/C(=O)OC(C)(C)C [LACIDIPINE]	> 30 µM	–	> 30 µM	> 30 µM	> 30 µM	> 30 µM	> 30 µM	> 30 µM
COC(=O)C1=C(C)NC(C)=C(C(=O)OCCN2CCN(C(c3ccccc3)c3ccccc3)CC2)C1c1cccc([N+](=O)[O-])c1 (configuration not stated) [MANIDIPINE 6300]	> 30 µM	> 30 µM	> 30 µM	> 30 µM	26 µM	> 30 µM	> 30 µM	> 30 µM
O=C1c2cccc3c2[C@H](CCC3)CN1[C@@H]1CN2CCC1CC2 [PALONOSETRON]	> 30 µM	–	> 30 µM	38.5 µM	–	> 30 µM	> 30 µM	0.0021 µM
OC[C@H]1O[C@@H](n2cnc3c2NC=NC[C@H]3O)C[C@@H]1O [PENTOSTATIN]	> 30 µM	> 30 µM	> 30 µM	> 30 µM	> 30 µM	> 30 µM	> 30 µM	> 30 µM
Cc1cccc(C)c1NC(=O)CC12CCCN1CCC2 [PILSICAINIDE]	> 30 µM	–	> 30 µM	> 30 µM	> 30 µM	> 30 µM	> 30 µM	> 30 µM
CC(C)c1cccc(C(C)C)c1O [PROPOFOL]	–	> 30 µM	> 30 µM	> 30 µM	> 30 µM	–	> 30 µM	> 30 µM
O=C1OC(OC(=O)c2cccnc2Nc2cccc(C(F)(F)F)c2)c2ccccc21 (configuration not stated) [TALNIFLUMATE]	> 30 µM	> 30 µM	> 30 µM	> 30 µM	> 30 µM	> 30 µM	> 30 µM	> 30 µM
CCOC(=O)c1c(CSc2ccccc2)n(C)c2cc(Br)c(O)c(CN(C)C)c12 [UMIFENOVIR]	> 30 µM	–	> 30 µM	> 30 µM	> 30 µM	> 30 µM	> 30 µM	> 30 µM
